Test results published in the supplement of paper PMC10307832.

Key:
Experiment in all cases: relative viability (nuclei count vs DMSO), 5 days (fraction); higher = more cells survive
[1] = compound: CCN1CCN(c2ccc(Nc3cc(N(C)C(=O)Nc4c(Cl)c(OC)cc(OC)c4Cl)ncn3)cc2)CC1 [BGJ398] + CC(=O)c1c(C)c2cnc(Nc3ccc(N4CCNCC4)cn3)nc2n(C2CCCC2)c1=O [Palbociclib] (partner 0.5 µM)
How it was run: (§1)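 Medians of duplicate plates are given as relative viability. That measure is the nuclei count in treated wells divided by the count in vehicle wells. Counts were taken on 4× images of lung cancer cell lines in 1536-well plates, 5 days after pin-tool dosing the day after seeding with one drug alone or a fixed anchor-drug dose plus five library-drug doses (not always all listed) in √10 steps.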

[2] = compound: C1=CC2=NC=CN=C2C=C1/C=C/3\C(=O)NC(=O)S3 + C[C@@H](Oc1cc(-c2cnn(C3CCNCC3)c2)cnc1N)c1c(Cl)ccc(F)c1Cl [Crizotinib] (partner 1 µM)
How it was run: as §1

[3] = compound: C1=CC2=NC=CN=C2C=C1/C=C/3\C(=O)NC(=O)S3 + C[C@]1(O)C[C@@H](c2nc(-c3ccc4ccc(-c5ccccc5)nc4c3)c3c(N)nccn32)C1 [Linsitinib] (partner 1 µM)
How it was run: as §1

[4] = compound: CCN1CCN(c2ccc(Nc3cc(N(C)C(=O)Nc4c(Cl)c(OC)cc(OC)c4Cl)ncn3)cc2)CC1 [BGJ398] + Nc1ncn([C@H]2C[C@H](O)[C@@H](CO)O2)c(=O)n1 [Decitabine] (partner 2 µM)
How it was run: as §1

Row | Cell Line | relative viability ([1]; first compound 0.01 µM) | relative viability ([1]; first compound 0.03162 µM) | relative viability ([1]; first compound 0.1 µM) | relative viability ([1]; first compound 0.3162 µM) | relative viability ([1]; first compound 1 µM) | relative viability ([2]; first compound 0.02 µM) | relative viability ([2]; first compound 0.06325 µM) | relative viability ([2]; first compound 0.2 µM) | relative viability ([2]; first compound 0.6325 µM) | relative viability ([2]; first compound 2 µM) | relative viability ([3]; first compound 0.02 µM) | relative viability ([3]; first compound 0.06325 µM) | relative viability ([3]; first compound 0.2 µM) | relative viability ([3]; first compound 0.6325 µM) | relative viability ([3]; first compound 2 µM) | relative viability ([4]; first compound 0.01 µM) | relative viability ([4]; first compound 0.03162 µM) | relative viability ([4]; first compound 0.1 µM) | relative viability ([4]; first compound 0.3162 µM) | relative viability ([4]; first compound 1 µM)
1 | LK-2 | 0.638 | 0.862 | 0.489 | 0.336 | 0.191 | 0.311 | 0.252 | 0.236 | 0.22 | 0.235 | 0.68 | 0.523 | 0.69 | 0.644 | 0.516 | 0.234 | 0.262 | 0.222 | 0.157 | 0.137
2 | LOU-NH91 | 0.555 | 0.544 | 0.553 | 0.559 | 0.536 | 0.717 | 0.761 | 0.745 | 0.755 | 0.72 | 0.982 | 1.01 | 0.928 | 0.954 | 0.97 | 0.837 | 0.676 | 0.813 | 0.649 | 0.821
3 | LU99A | 0.426 | 0.442 | 0.438 | 0.392 | 0.364 | 0.613 | 0.597 | 0.564 | 0.415 | 0.431 | 0.597 | 0.559 | 0.561 | 0.5 | 0.475 | 0.776 | 0.763 | 0.735 | 0.756 | 0.68
4 | LXF-289 | 0.584 | 0.549 | 0.564 | 0.531 | 0.552 | 0.766 | 0.735 | 0.785 | 0.777 | 0.858 | 0.928 | 0.921 | 0.993 | 0.941 | 0.933 | 0.351 | 0.415 | 0.332 | 0.325 | 0.38
5 | NCI-H23 | 0.471 | 0.601 | 0.591 | 0.471 | 0.475 | 0.49 | 0.629 | 0.498 | 0.555 | 0.351 | 0.575 | 0.649 | 0.717 | 0.588 | 0.603 | 0.303 | 0.375 | 0.279 | 0.271 | 0.325
6 | NCI-H322M | 0.493 | 0.43 | 0.472 | 0.491 | 0.521 | 0.858 | 0.778 | 1.1 | 0.823 | 0.943 | 1.06 | 0.85 | 0.982 | 0.896 | 0.918 | 0.755 | 0.723 | 0.771 | 0.602 | 0.833
7 | NCI-H358 | 0.139 | 0.145 | 0.133 | 0.13 | 0.145 | 0.732 | 0.568 | 0.561 | 0.551 | 0.573 | 0.776 | 0.764 | 0.754 | 0.647 | 0.74 | 0.184 | 0.215 | 0.208 | 0.201 | 0.2
8 | NCI-H441 |  | 0.186 | 0.213 | 0.25 | 0.183 | 0.577 | 0.716 | 0.698 | 0.827 | 0.644 | 0.473 | 0.399 | 0.653 | 0.57 | 0.508 |  | 0.26 | 0.275 | 0.273 | 0.224
9 | NCI-H460 | 0.209 | 0.169 | 0.118 | 0.206 | 0.0801 | 0.783 | 1.22 | 0.959 | 0.831 | 0.853 | 0.718 | 1.32 | 0.787 | 0.687 | 0.872 | 0.418 | 0.515 | 0.592 | 0.53 | 0.438
10 | NCI-H520 | 0.216 | 0.19 | 0.147 | 0.142 | 0.161 | 0.721 | 1.01 | 0.713 | 0.785 | 0.756 | 0.931 | 1.15 | 1.11 | 0.969 | 1.03 | 0.538 | 0.436 | 0.397 | 0.242 | 0.295
11 | NCI-H647 | 0.388 | 0.375 | 0.517 | 0.395 | 0.413 | 0.989 | 1.77 | 1.19 | 1.03 | 1 | 1.13 | 1.51 | 1.41 | 1.1 | 1.08 | 0.413 | 0.359 | 0.491 | 0.336 | 0.412
12 | NCI-H650 | 0.313 | 0.375 | 0.321 | 0.379 | 0.315 | 0.805 | 0.707 | 0.627 | 0.714 | 0.652 | 1.13 | 0.922 | 1.17 | 0.832 | 0.731 | 0.356 | 0.318 | 0.398 | 0.312 | 0.359
13 | NCI-H661 | 0.422 | 0.406 | 0.384 | 0.4 | 0.398 | 0.87 | 0.809 | 0.945 | 1 | 0.987 | 0.59 | 0.501 | 0.606 | 0.583 | 0.56 | 0.51 | 0.491 | 0.61 | 0.55 | 0.529
14 | NCI-H727 | 0.806 | 0.651 | 0.647 | 0.686 | 0.691 | 0.768 | 0.842 | 0.75 | 0.794 | 0.517 | 0.341 | 0.223 | 0.33 | 0.403 | 0.252 | 0.859 | 0.862 | 0.965 | 0.862 | 0.669
15 | NCI-H838 | 0.203 | 0.203 | 0.217 | 0.22 | 0.195 | 0.778 | 1.12 | 0.737 | 0.751 | 0.823 | 0.955 | 1.03 | 0.958 | 0.913 | 1 | 0.389 | 0.463 | 0.552 | 0.463 | 0.378
16 | NCI-H1355 | 0.417 | 0.402 | 0.376 | 0.389 | 0.386 | 0.865 | 1.03 | 1.1 | 1.02 | 0.976 | 0.805 | 0.782 | 0.843 | 0.79 | 0.804 | 0.378 | 0.309 | 0.348 | 0.352 | 0.348
17 | NCI-H1437 | 0.383 | 0.309 | 0.323 | 0.337 | 0.278 | 0.829 | 0.901 | 0.805 | 0.917 | 1.02 | 0.899 | 1.2 | 1.05 | 0.979 | 0.969 | 0.59 | 0.532 | 0.606 | 0.598 | 0.515
18 | NCI-H1651 | 0.507 | 0.561 | 0.554 | 0.54 | 0.498 | 0.886 | 0.677 | 0.865 | 0.825 | 0.842 | 0.894 | 1.03 | 0.989 | 0.916 | 0.939 | 0.463 | 0.604 | 0.664 | 0.602 | 0.458
19 | NCI-H1666 | 0.659 | 0.631 | 0.666 | 0.641 | 0.638 | 0.992 | 1.02 | 1.05 | 1.01 | 1.07 | 0.789 | 0.848 | 0.807 | 0.843 | 0.911 | 0.634 | 0.763 | 0.814 | 0.68 | 0.506
20 | NCI-H1734 | 0.329 | 0.352 | 0.355 | 0.359 | 0.355 | 0.665 |  | 0.808 | 0.637 | 0.611 | 0.856 |  | 0.853 | 0.789 | 0.841 | 0.456 | 0.555 | 0.409 | 0.404 | 0.47
21 | NCI-H1755 | 0.464 | 0.473 | 0.461 | 0.468 | 0.441 | 0.747 | 0.786 | 0.86 | 0.863 | 0.817 | 0.927 | 0.995 | 1.02 | 0.978 | 0.979 | 0.675 | 0.738 | 0.721 | 0.686 | 0.634
22 | NCI-H1792 | 0.637 | 0.733 | 0.61 | 0.655 | 0.532 | 0.936 | 0.872 | 1.02 | 0.792 | 0.668 | 0.519 | 0.309 | 0.557 | 0.456 | 0.593 | 0.476 | 0.533 | 0.568 | 0.474 | 0.441
23 | NCI-H1915 | 0.525 | 0.533 | 0.532 | 0.529 | 0.556 | 0.861 | 0.934 | 0.918 | 0.859 | 0.894 | 1.1 | 1.18 | 1.11 | 1.12 | 1.08 | 0.271 | 0.248 | 0.28 | 0.281 | 0.241
24 | NCI-H1944 | 0.29 | 0.333 | 0.347 | 0.337 | 0.344 | 1.07 | 1.06 | 1.01 | 0.993 | 1.1 | 1.18 | 1.22 | 1.22 | 0.944 | 1.12 | 0.401 | 0.404 | 0.448 | 0.43 | 0.48
25 | NCI-H1975 | 0.575 | 0.678 | 0.672 | 0.546 | 0.417 | 1.02 | 1.01 | 0.937 | 1.03 | 0.97 | 0.819 | 1.01 | 1.09 | 0.884 | 0.934 | 0.492 | 0.454 | 0.423 | 0.406 | 0.381
26 | NCI-H1993 | 0.674 | 0.639 | 0.655 | 0.692 | 0.724 | 0.914 | 1.03 | 0.806 | 0.848 | 0.668 | 0.712 | 0.797 | 0.751 | 0.795 | 0.713 | 0.59 | 0.624 | 0.582 | 0.696 | 0.576
27 | NCI-H2009 | 0.268 | 0.222 | 0.197 | 0.268 | 0.241 | 1.06 | 1.1 | 1.05 | 1.04 | 1.03 | 1.16 | 1.26 | 1.26 | 1.18 | 1.2 | 0.358 | 0.371 | 0.399 | 0.425 | 0.361
